{"source": "paper PMC8268376", "about": "“Effects of Venlafaxine, Risperidone and Febuxostat on Cuprizone-Induced Demyelination, Behavioral Deficits and Oxidative Stress” (International Journal of Molecular Sciences, 2021)", "target": "TRPA1 (hTRPA1, transient receptor potential ankyrin 1) (Homo sapiens, UniProt O75762)", "sequence (O75762 whole entry)": "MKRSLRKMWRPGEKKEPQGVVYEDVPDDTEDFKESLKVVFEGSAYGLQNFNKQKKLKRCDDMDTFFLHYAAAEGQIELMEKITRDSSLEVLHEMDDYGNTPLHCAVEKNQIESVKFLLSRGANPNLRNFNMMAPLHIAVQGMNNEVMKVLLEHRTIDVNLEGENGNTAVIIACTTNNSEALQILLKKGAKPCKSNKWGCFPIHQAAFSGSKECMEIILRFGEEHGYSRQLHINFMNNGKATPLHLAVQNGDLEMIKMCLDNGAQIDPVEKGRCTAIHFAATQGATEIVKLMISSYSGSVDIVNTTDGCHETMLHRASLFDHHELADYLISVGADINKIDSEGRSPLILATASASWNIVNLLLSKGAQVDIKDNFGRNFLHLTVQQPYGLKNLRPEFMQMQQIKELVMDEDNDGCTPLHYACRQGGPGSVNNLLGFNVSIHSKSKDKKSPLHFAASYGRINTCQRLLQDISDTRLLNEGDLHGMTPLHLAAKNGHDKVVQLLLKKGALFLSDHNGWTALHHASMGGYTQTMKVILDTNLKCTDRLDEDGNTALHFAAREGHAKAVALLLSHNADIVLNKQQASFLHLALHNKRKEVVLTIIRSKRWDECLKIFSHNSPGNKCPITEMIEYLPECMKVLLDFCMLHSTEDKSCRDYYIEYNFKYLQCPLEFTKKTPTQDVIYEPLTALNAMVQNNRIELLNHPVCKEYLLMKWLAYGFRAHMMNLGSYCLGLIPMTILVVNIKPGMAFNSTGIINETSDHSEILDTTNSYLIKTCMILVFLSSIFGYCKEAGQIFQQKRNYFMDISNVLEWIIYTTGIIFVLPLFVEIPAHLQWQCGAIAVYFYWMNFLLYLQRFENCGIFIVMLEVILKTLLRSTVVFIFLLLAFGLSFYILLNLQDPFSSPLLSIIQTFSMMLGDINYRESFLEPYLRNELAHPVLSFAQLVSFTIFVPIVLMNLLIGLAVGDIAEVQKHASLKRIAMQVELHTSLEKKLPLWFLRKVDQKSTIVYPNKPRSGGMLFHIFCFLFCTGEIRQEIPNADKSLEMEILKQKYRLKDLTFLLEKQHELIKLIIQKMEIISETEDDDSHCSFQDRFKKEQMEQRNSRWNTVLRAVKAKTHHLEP", "test": "Calcium […] fluorescence assay in hTRPA1-transfected vs untransfected HEK293T cells; agonist response blocked by A-967079; significant at […] and above", "format": "cell-based"}
{"smiles": "Cc1nc(-c2ccc(OCC(C)C)c(C#N)c2)sc1C(=O)O", "note": "[febuxostat]", "values": [{"measurement": "lowest concentration giving significant TRPA1 calcium response", "value": "~ 126 µM"}]}
